Reference: patent US20060199206A1, “Method for identifying skin care composition-resistant skin-binding peptides” (priority 2005, published 2006)

Legend:
[1] = Phage ELISA for skin binding affinity (Example 14); set-up: species or system pig; details: 1×10^11 pfu of phage, 37° C. 15 min, TBST-0.5% washes; anti-M13 HRP conjugate; mean of at least three replicates
Experimental: (§1) Phage-peptide clones identified in Examples 11-13 were amplified by infecting fresh host cells (E. coli ER2338). The pigskin-bottom 96-well apparatus system described in Examples 11-13 was used for the ELISA procedure. For each clone to be tested, the pigskin well was incubated for 1 h at room temperature with 400 μL of blocking buffer, consisting of 2% non-fat dry milk (Schleicher & Schuell, Inc.) in TBS. The blocking buffer was removed by inverting the systems and blotting them dry with paper towels. The systems were rinsed 6 times with wash buffer consisting of TBST-0.05%. The wells were filled with 100 μL of TBST-0.5% containing 1 mg/mL of BSA and 1×10^11 pfu of phage. The samples were incubated at 37° C. for 15 min with slow shaking. The non-binding phage was removed by washing the wells 10 to 20 times with TBST-0.5%. Then, 100 μL of horseradish peroxidase/anti-M13 antibody conjugate (Amersham USA, Piscataway, N.J.), diluted 1:500 in the blocking buffer, was added to each well and incubated for 1 h at room temperature. The conjugate solution was removed and the wells were washed 6 times with TBST-0.05%. TMB substrate (200 μL), obtained from Pierce Biotechnology (Rockford, Ill.) was added to each well and the color was allowed to develop for between 5 to 30 min, typically for 10 min, at room temperature. Then, stop solution (200 μL of 2 M H2SO4) was added to each well and the solution was transferred to a 96-well plate and the absorbance at 450 nm (A450) was measured using a microplate spectrophotometer (Molecular Devices, Sunnyvale, Calif.). The resulting absorbance values, reported as the mean of at least three replicates, and the standard error of the mean (SEM) are given in Table 2.

[2] = Phage ELISA for skin binding affinity after body wash treatment (Example 15); set-up: species or system pig; details: mean of at least three replicates; for Body Wash A450 ± SEM: 200 μL Johnson's Head-to-Toe Baby Wash for 30 min after phage binding; for Buffer Wash A450 ± SEM: procedure of Example 14
Experimental: as §1
The ELISA procedure described in Example 14 was used with the following modification. After removal of the non-binding phage peptide solution from the wells, 200 μL of Johnson's Head-to-Toe Baby Wash was added to the wells and was incubated for 30 min. The washes and color development steps described in Example 14 were followed. For the buffer wash samples, the same procedure described in Example 14 was used. […] The resulting absorbance values, reported as the mean of at least three replicates, and the standard error of the mean are given in Table 3.

[3] = stated as known; cited from earlier work

Substance | A450 ± SEM [1] | Body Wash A450 ± SEM [2] | Buffer Wash A450 ± SEM [2] | binding affinity for skin [3]
NHSNWKTAADFL (Body wash-resistant skin-binding peptide) [Skin-12mer-4] | 0.874 ± 0.039 |  |  | 
SGCHLVYDNGFCDH (Body wash-resistant skin-binding peptide) [Skin-cys-1] | 1.385 ± 0.046 | 1.444 ± 0.293 | 1.182 ± 0.070 | 
TMGFTAPRFPHY (Body wash-resistant skin-binding peptide) [Skin-12mer-1] | 0.506 ± 0.097 |  |  | 
D21: hair-binding phage peptide used as control in Example 15, known low binding affinity for skin (RTNAADHPAAVT; Hair-binding sequence) [Clone D21, reference compound] |  | 0.549 ± 0.053 | 0.297 ± 0.004 | low binding affinity for skin
NLCDSARDSPRCKV (Body wash-resistant skin-binding peptide) [Skin-cys-3] | 0.927 ± 0.044 |  |  | 
QLSYHAYPQANHHAP (Body wash-resistant skin-binding peptide) [Skin-15mer-1] | 1.264 ± 0.166 | 1.447 ± 0.178 | 1.031 ± 0.045 | 
WPMHPEKGSRWS (Body wash-resistant skin-binding peptide) [Skin-12mer-11] | 0.81 ± 0.038 |  |  | 
SDTISRLHVSMT (Body wash-resistant skin-binding peptide) [Skin-12mer-7] | 1.134 ± 0.093 |  |  | 
VQPITNTRYEGG (Body wash-resistant skin-binding peptide) [Skin-12mer-10] | 0.418 ± 0.036 |  |  | 
GSSTVGRPSLYE (Body wash-resistant skin-binding peptide) [Skin-12mer-6] | 0.677 ± 0.104 |  |  | 
IB5: hair-binding phage peptide (Huang et al.) used as control, known low binding affinity for skin (TPPELLHGDPRS; Hair-binding peptide) |  | 0.453 ± 0.035 | 0.202 ± 0.010 | low binding affinity for skin
DWCDTIIPGRTCHG (Body wash-resistant skin-binding peptide) [Skin-cys-6] | 1.657 ± 0.047 |  |  | 
DACSGNGHPNNCDR (Body wash-resistant skin-binding peptide) [Skin-cys-4] | 0.852 ± 0.033 |  |  | 
NQAASITKRVPY (Body wash-resistant skin-binding peptide) [Skin-12mer-5] | 0.391 ± 0.036 |  |  | 
SPLTVPYERKLL (Body wash-resistant skin-binding peptide) [Skin-12mer-8] | 0.433 ± 0.05 |  |  | 
SVSVGMKPSPRP (Body wash-resistant skin-binding peptide) [Skin-12mer-2] | 0.818 ± 0.108 |  |  | 
SPYPSWSTPAGR (Body wash-resistant skin-binding peptide) [Skin-12mer-9] | 1.146 ± 0.131 | 2.265 ± 0.132 | 1.298 ± 0.11 | 
ASCPSASHADPCAH (Body wash-resistant skin-binding peptide) [Skin-cys-2] | 1.184 ± 0.044 |  |  | 
